The nature of data set [1]: in vitro. Particulars: dog, MDCK.
Data set [2] is described as follows: in vitro. The conditions noted are these: pig, LLC-PK1.
Data set [3] can be described thus: in vivo. Particulars: rat, plasma, iv, 0.5 mg/kg.
Data set [4] is described as follows: in vivo. Particulars: rat, po, 1 mg/kg.

From ChEMBL document CHEMBL3588771, “Discovery of 5-Amino-N-(1H-pyrazol-4-yl)pyrazolo[1,5-a]pyrimidine-3-carboxamide Inhibitors of IRAK4” (ACS Med Chem Lett, 2015) come the findings set out here.

Broadly, the Papp is a coefficient for how fast a substance crosses the barrier. The low end stands for poor permeation, the high end for ready permeation. Consider `Cn1cc(NC(=O)c2cnn3ccc(N[C@H]4CCCC[C@H]4N)nc23)c(C(N)=O)n1`, for which the Papp in data set [1] is under 2 ×10⁻⁶ cm/s.

For orientation: clearance means the volume of plasma or blood freed of the substance per unit of time. A low value points to inefficient removal. As usually defined, the bioavailability is the share of a dose that reaches the circulation, judged against a reference dose that is usually intravenous. A lower bioavailability goes with little systemic uptake. With `Cn1cc(NC(=O)c2cnn3ccc(N[C@@H]4CCCC[C@@H]4N)nc23)c(C(N)=O)n1`, in data set [2], the Papp was 2 ×10⁻⁶ cm/s. Besides, the clearance in data set [3] came out at 56 mL/min/kg. In data set [4], this compound registered a bioavailability of 0%.

In the case of `Cn1cc(NC(=O)c2cnn3ccc(N[C@@H]4CCCC[C@@H]4N)nc23)c(C#N)n1`, the Papp in data set [1] came to 17 ×10⁻⁶ cm/s.

With `Cn1cc(NC(=O)c2cnn3ccc(N[C@@H]4CCCC[C@@H]4N)nc23)c(C(F)(F)F)n1`, in data set [1], the Papp amounted to 16 ×10⁻⁶ cm/s. The same compound showed a clearance in data set [3] of 98 mL/min/kg. In data set [4], this compound showed a bioavailability of 5%.

`Cn1cc(NC(=O)c2cnn3ccc(N[C@@H]4CCCC[C@@H]4N)nc23)c(C(F)F)n1` gave a Papp in data set [1] of 13 ×10⁻⁶ cm/s.

As for `Cn1cc(NC(=O)c2cnn3ccc(N[C@@H]4CCCC(F)(F)[C@@H]4N)nc23)c(C(F)F)n1`, the Papp in data set [1] was determined as 29 ×10⁻⁶ cm/s. This compound displayed a clearance in data set [3] of 29 mL/min/kg. This compound yielded a bioavailability in data set [4] of 46%.

In data set [1], `Cn1cc(NC(=O)c2cnn3ccc(N[C@@H]4CCC(F)(F)C[C@@H]4N)nc23)c(C(F)(F)F)n1` showed a Papp of 26 ×10⁻⁶ cm/s.

On to `Cn1cc(NC(=O)c2cnn3ccc(N4CC[C@H](F)[C@@H](N)C4)nc23)c(C(F)(F)F)n1`, for which the Papp in data set [1] came out at 28 ×10⁻⁶ cm/s.
